In patent publication US20250387428A1, “PETROLATUM-BASED PHMB COMPOSITIONS AND METHODS FOR THE TREATMENT OF INFLAMMATORY SKIN DISEASE” (priority 2024, published 2025):
“And” between values parts separate entries of the source, which are not always exact repeats. Identical values can stand only once. “Also recorded” adds a separate entry of the source.

Test system: skin of albino New Zealand White rabbits
Test: Rabbit skin irritation, Primary Irritation Index
Conditions: sulfate
Protocol: Within 24 hours to 4 hours before test application, the backs of female albino New Zealand White rabbits were clipped free of hair, exposing 2 test and 2 control areas on each side of the spine with a size of approximately 15 cm×15 cm. The two test sites are located on the left cranial section and the right caudal section of the dorsal region. The two control sites are located on the left caudal and right cranial section of the dorsal region. FIG. 4 depicts the arrangement of test and control sites. The exposed skin is wiped with alcohol and dried. Rabbits of acceptable skin quality were selected and used for testing.
A 25×25 mm gauze patch saturated with 0.5 mL of 0.9% NaCl is used for the control and applied to the clipped control sites. The patches are secured using hypoallergenic, waterproof, surgical tape over the test and control sites. The animal's trunk is securely wrapped so as to maintain the position of the patches. Patches are left applied for a minimum of four hours.
After patch removal, the test and control sites were then scored for erythema and edema at 1, 24, 48 and 72 hours after patch removal. Only the 24, 48, and 72 hour observations were scored and used for calculations. If no response was expected, testing was conducted using three animals per test article. If irritation was anticipated, one animal was tested initially. If the first animal received a score of 2 or less for either erythema or edema, 2 additional rabbits were used to conclude the test.
This total was divided by the total number of observations. The same was done for the control sites. […] These scores for each animal were added and divided by the total number of animals to give the Primary Irritation Index. […] For any response, the Maximum Irritation Response, the time of onset of the response and the time of maximum response was recorded.
To positively validate the test, 10% sodium dodecyl sulfate (SDS), which is a known dermal irritant, in petroleum jelly was applied to a 2.5 cm×2.5 cm gauze patch. As a negative control, 0.5 mL of 0.9% NaCl was applied to a 2.5 cm×2.5 cm gauze patch. A Primary Irritation Index in the moderate to severe range is considered a positive result. The test system and methods utilized were the same as described above.

[1] = per rabbit, test sites, 24, 48 and 72 hour observations after patch removal, patch at least four hours

**Q.** What does the source list for `CCCCCCCCCCCCOS(=O)(=O)[O-].[Na+]` [10% SDS, sodium dodecyl sulfate]?
**A.** Total Score Average (per rabbit (irritation index for each animal)): Total Score Average = 6.6; also recorded: Total Score Average = 7.3; also recorded: Total Score Average = 5.3; ED (edema) score total [1]: 19 and 21 and 14; ER (erythema) score total [1]: 21 and 23 and 18; ER + ED = Total (per rabbit, test sites, 24, 48 and 72 hour observations): 40 and 44 and 32
